Test results taken from US20090011410A1, “METHOD FOR TAILORING ADMINISTRATION OF DRUGS BY QUANTITATION OF MRNA” (priority 2004, published 2009).
“Also recorded” adds a separate entry of the source.

Legend:
p21 mRNA, Jurkat cells = experiment: etoposide-induced p21 mRNA expression in cultured Jurkat cells; assay type: cell-based, human; details: even when 100 μM was used (FIG. 1)
Experimental: (§2) Blood was obtained from healthy adults and from two leukemic non-Hodgkin's malignant lymphoma patients. […] For human experiments, blood aliquots were stimulated with various anti-cancer drugs at 37° C. for 2 hours, then both p21 and BAX mRNA were measured. The anti-cancer drugs used in this study were clinical drugs, and the concentration of each drug was adjusted to typical blood levels 3-6 hours after intravenous administration.
(§3) The mRNA and cDNA were prepared from whole blood. In brief, home-made 96-well filterplates were placed over collection plates, and 150 μl 5 mM Tris, pH 7.4, was applied. Following centrifugation at 120×g for 1 min at 4° C., 50 μl of blood samples were applied to each well and immediately centrifuged at 120×g for 2 min at 4° C., followed by washing of each well with 300 μl PBS once with centrifugation at 2000×g for 5 min at 4° C. […] The Ct was determined by analytical software (SDS, ABI).

PUMA mRNA = experiment: drug-induced PUMA mRNA expression in whole blood of leukemia and lymphoma patients; assay type: cell-based, human; details: 2 hours at 37° C.
BAX mRNA [1] = experiment: drug-induced BAX mRNA expression in whole blood of healthy adults; assay type: cell-based, human; details: for Bax induction: 20 μM BLM or 100 μM VP-16, 4 hours at 37° C., ΔCt smaller than p21, not induced in 1 or 2 individuals (FIG. 6); for BAX responses compared with p21 and PUMA: 100 μM VP-16 or 20 μM BLM, 2 hours at 37° C., p<0.01 (FIG. 14)
Text: Blood was obtained from healthy adults and from two leukemic non-Hodgkin's malignant lymphoma patients. U937, KG-1, and Jurkat cells were obtained from American Type Culture Collection (ATCC, Manassas, Va.), and maintained in RPMI 1640 supplemented with 10% fetal calf serum. Of these, U937 cells are a human histiocytic lymphoma cell line, KG-1 cells are a human bone marrow myelogenous leukemia cell line, and Jurkat cells are a human T-cell lymphoblast-like, leukemia derived cell line. […] For human experiments, blood aliquots were stimulated with various anti-cancer drugs at 37° C. for 2 hours, then both p21 and BAX mRNA were measured. The anti-cancer drugs used in this study were clinical drugs, and the concentration of each drug was adjusted to typical blood levels 3-6 hours after intravenous administration.
(§1) The mRNA and cDNA were prepared from whole blood. In brief, home-made 96-well filterplates were placed over collection plates, and 150 μl 5 mM Tris, pH 7.4, was applied. Following centrifugation at 120×g for 1 min at 4° C., 50 μl of blood samples were applied to each well and immediately centrifuged at 120×g for 2 min at 4° C., followed by washing of each well with 300 μl PBS once with centrifugation at 2000×g for 5 min at 4° C. Then, 60 μl stock lysis buffer, containing for example 0.5% N-Lauroylsarcosine, 4×SSC, 10 mM Tris HCl, pH 7.4, 1 mM EDTA, 0.1% IGEPAL CA-630, and 1.791 M guanidine thiocyanate, supplemented with 1% 2-mercaptoethanol (Bio Rad, Hercules, Calif., USA), 0.5 mg/ml proteinase K (Pierce, Rockford, Ill., USA), 0.1 mg/ml salmon sperm DNA (5 Prime Eppendorf/Brinkmann, Westbury, N.Y., USA), 0.1 mg/ml E. coli tRNA (Sigma), a cocktail of 10 mM each of the specific reverse primers shown in Table 1, and standard RNA34 oligonucleotides, were applied to the filterplates, followed by incubation at 37° C. for 10 min. The filterplates were then placed over oligo(dT)-immobilized microplates (GenePlate, RNAture), and centrifuged at 2000×g for 5 min at 4° C. Following overnight storage at 4° C., the microplates were washed with 100 μl plain lysis buffer 3 times, followed by 150 μl of wash buffer (0.5 M NaCl, 10 mM Tris, pH 7.4, 1 mM EDTA) 3 times at 4° C. The cDNA was directly synthesized in each well by adding 30 μl buffer containing 1× RT-butter, 1.25 mM each of dNTP, 4 units rRNasin, and 80 units of MMLV reverse transcriptase (Promega) (without primers), and incubation at 37° C. for 2 hours. The specific primer-primed cDNA existed in solution, and oligo(dT)-primed cDNA stayed immobilized in the microplate. […] The Ct was determined by analytical software (SDS, ABI). […]

BAX mRNA [2] = experiment: drug-induced BAX mRNA expression in whole blood of leukemia and lymphoma patients; assay type: cell-based, human; details: leukemic lymphoma patient 2, 2 hours at 37° C., drug concentrations (FIG. 3)
Experimental: The mRNA and cDNA were prepared from whole blood. In brief, home-made 96-well filterplates were placed over collection plates, and 150 μl 5 mM Tris, pH 7.4, was applied. Following centrifugation at 120×g for 1 min at 4° C., 50 μl of blood samples were applied to each well and immediately centrifuged at 120×g for 2 min at 4° C., followed by washing of each well with 300 μl PBS once with centrifugation at 2000×g for 5 min at 4° C. Then, 60 μl stock lysis buffer, containing for example 0.5% N-Lauroylsarcosine, 4×SSC, 10 mM Tris HCl, pH 7.4, 1 mM EDTA, 0.1% IGEPAL CA-630, and 1.791 M guanidine thiocyanate, supplemented with 1% 2-mercaptoethanol (Bio Rad, Hercules, Calif., USA), 0.5 mg/ml proteinase K (Pierce, Rockford, Ill., USA), 0.1 mg/ml salmon sperm DNA (5 Prime Eppendorf/Brinkmann, Westbury, N.Y., USA), 0.1 mg/ml E. coli tRNA (Sigma), a cocktail of 10 mM each of the specific reverse primers shown in Table 1, and standard RNA34 oligonucleotides, were applied to the filterplates, followed by incubation at 37° C. for 10 min. The filterplates were then placed over oligo(dT)-immobilized microplates (GenePlate, RNAture), and centrifuged at 2000×g for 5 min at 4° C. Following overnight storage at 4° C., the microplates were washed with 100 μl plain lysis buffer 3 times, followed by 150 μl of wash buffer (0.5 M NaCl, 10 mM Tris, pH 7.4, 1 mM EDTA) 3 times at 4° C. The cDNA was directly synthesized in each well by adding 30 μl buffer containing 1× RT-butter, 1.25 mM each of dNTP, 4 units rRNasin, and 80 units of MMLV reverse transcriptase (Promega) (without primers), and incubation at 37° C. for 2 hours. The specific primer-primed cDNA existed in solution, and oligo(dT)-primed cDNA stayed immobilized in the microplate. For TaqMan PCR (FIGS. 1, 3, 4), the resultant 4 μl cDNA solution was directly transferred to 384-well PCR plates, to which 5 μl of TaqMan universal master mix (ABI) and 1 μl oligonucleotide cocktail (15 μM each of forward and reverse primer, and 3-6 μM TaqMan probe) were applied, and PCR was conducted in PRISM 7900HT (ABI), with one cycle of 95° C. for 10 min followed by 45 cycles of 95° C. for 30 sec, 55° C. for 30 sec, and 60° C. for 1 min. […] The Ct was determined by analytical software (SDS, ABI).

p21 mRNA, U937 cells = experiment: etoposide-induced p21 mRNA expression in cultured U937 cells; assay type: cell-based, human; details: 10 μM etoposide, 2 hours at 37° C. (FIG. 1)
Experimental: as §2, §3

[3] = tested on: p21 mRNA, U937 cells mixed with blood; experiment: etoposide-induced p21 mRNA expression from U937 cells mixed in healthy adult blood; assay type: cell-based, human; details: 10 μM etoposide-treated U937, 1,250 U937 cells added to 1 μL blood, vs DMSO-treated U937 (FIG. 2)
Experimental: as §1, with “C.” for “C. Following overnight storage at 4° C., the microplates were washed with 100 μl plain lysis buffer 3 times, followed by 150 μl of wash buffer (0.5 M NaCl, 10 mM Tris, pH 7.4, 1 mM EDTA) 3 times at 4° C. The cDNA was directly synthesized in each well by adding 30 μl buffer containing 1× RT-butter, 1.25 mM each of dNTP, 4 units rRNasin, and 80 units of MMLV reverse transcriptase (Promega) (without primers), and incubation at 37° C. for 2 hours. The specific primer-primed cDNA existed in solution, and oligo(dT)-primed cDNA stayed immobilized in the microplate.”

[4] = tested on: leukemic non-Hodgkin's malignant lymphoma patient; experiment: clinical course of patient 2 (leukemic non-Hodgkin's lymphoma); assay type: in vivo, human; details: patient 2 with continued thrombocytopenia (FIG. 4)
human whole blood = experiment: DNA fragmentation (apoptosis) in whole blood by agarose gel electrophoresis; assay type: cell-based; details: 1 day of incubation, 100 μM VP-16, 20 μM BLM (FIG. 5 inset)
Experimental: Using a commercial kit (Puregene, Gentra, Minneapolis, Minn.), genomic DNA was purified from 300 μl each of whole blood with or without treatments. DNA was then analyzed in 3.5% agarose (3:1 NuSieve:agarose, FMC, Rockland, Me.) gel electrophoresis, stained with 0.5 μg/ml ethidium bromide, and photographic images were recorded by AlphaImager (Alpha Innotech, San Leandro, Calif.).
To mimic physiological conditions, whole blood was used, without isolating mononuclear cells. […] After 1 day of incubation, genomic DNA was extracted, and DNA fragmentation was analyzed by agarose gel electrophoresis using ethidium bromide staining.
Genomic DNA was purified from 300 μl each of whole blood with or without treatments, using a commercial kit (Puregene, Gentra, Minneapolis, Minn.). DNA was then analyzed in 3.5% agarose (3:1 NuSieve:agarose, FMC, Rockland, Me.) gel electrophoresis, stained with 0.5 μg/ml ethidium bromide, and photographic images were recorded by Alpha-Iimager (Alpha Innotech, San Leandro, Calif.).

COc1cc([C@@H]2c3cc4c(cc3[C@@H](O[C@@H]3O[C@@H]5CO[C@@H](C)O[C@H]5[C@H](O)[C@H]3O)[C@H]3COC(=O)[C@H]23)OCO4)cc(OC)c1O [VP-16, etoposide]
drug sensitivity (p21 mRNA expression) (p21 mRNA, Jurkat cells): resistant
PUMA induction (PUMA mRNA; AML patient, drug concentrations of b94 (FIG. 8B)): huge induction
PUMA response (PUMA mRNA; NHL patient, drug concentrations (FIG. 8C)): strong PUMA response
Bax induction (BAX mRNA [1]): induced
BAX responses compared with p21 and PUMA (BAX mRNA [1]): significantly less than those of p21 and PUMA
BAX mRNA induction (BAX mRNA [2]): induced
p21 expression (p21 mRNA, U937 cells): slight but significant p21 expression
p21 mRNA expression [3]: significant
platelet count [4]: increased substantially

bleomycin [BLM]
fragmentation of DNA (human whole blood): confirmed; also recorded: fragmentation of DNA was observed
Bax induction (BAX mRNA [1]): induced
BAX responses compared with p21 and PUMA (BAX mRNA [1]): significantly less than those of p21 and PUMA
